{"source": "patent US20120309750A1", "about": "“5-MEMBERED HETEROCYCLE DERIVATIVES AND MANUFACTURING PROCESS THEREOF” (ILDONG PHARM CO., LTD., priority 2010, published 2012)", "key": {"[1]": {"target": "yeast HSP90 (Saccharomyces cerevisiae, UniProt P02829)", "sequence (P02829 whole entry)": "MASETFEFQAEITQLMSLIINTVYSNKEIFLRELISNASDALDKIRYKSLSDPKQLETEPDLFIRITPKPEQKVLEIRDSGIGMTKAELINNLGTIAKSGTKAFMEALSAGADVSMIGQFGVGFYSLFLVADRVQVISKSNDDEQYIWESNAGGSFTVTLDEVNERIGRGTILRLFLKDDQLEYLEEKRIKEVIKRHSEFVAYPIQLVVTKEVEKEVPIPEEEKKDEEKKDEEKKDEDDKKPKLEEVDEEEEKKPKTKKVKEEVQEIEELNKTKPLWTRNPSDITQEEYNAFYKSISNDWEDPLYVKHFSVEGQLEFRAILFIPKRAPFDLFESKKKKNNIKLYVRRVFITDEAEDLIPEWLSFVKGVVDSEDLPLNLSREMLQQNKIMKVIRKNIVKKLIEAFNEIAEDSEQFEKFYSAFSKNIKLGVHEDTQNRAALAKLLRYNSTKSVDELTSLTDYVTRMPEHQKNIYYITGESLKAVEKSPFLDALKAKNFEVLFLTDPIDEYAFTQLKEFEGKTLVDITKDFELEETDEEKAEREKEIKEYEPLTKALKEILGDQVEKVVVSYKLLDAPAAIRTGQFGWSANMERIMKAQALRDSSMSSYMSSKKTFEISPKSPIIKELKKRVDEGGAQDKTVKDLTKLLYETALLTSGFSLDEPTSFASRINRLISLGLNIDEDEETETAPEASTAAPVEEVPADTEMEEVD", "test": "Hsp90 ATPase assay (malachite green)", "type": "biochemical", "protocol": "(§1) For present invention, the ATPase activity of yeast HSP90 was measured using malachite green assay. Formula I compounds for primary antitumoral activity were treated in human colorectal cancer cells (HCT116) showing increased expression levels of HSP90 client protein and cotoxicity IC50 values was measured as a result."}, "[2]": {"test_system": "human colorectal cancer cells (HCT116)", "test": "Growth inhibition assay (cytotoxicity) in HCT116", "type": "cell-based", "details": "HCT-116", "protocol": "as §1"}}, "data": [{"compound": "CCNC(=O)c1noc(-c2cc(C(C)C)c(O)cc2O)c1-c1ccc(CN2CCOCC2)s1", "note": "[Compound I-1, 5-(2,4-Dihydroxy-5-isopropylphenyl)-N-ethyl-4-(5-(morpholinomethyl)thiophen-2-yl)isoxazole-3-carboxamide]", "values": [{"measurement": "IC50", "setting": "[1]", "value": "< 500", "unit": "nM"}, {"measurement": "IC50", "setting": "[2]", "value": "< 500", "unit": "nM"}]}, {"compound": "CCNC(=O)c1noc(-c2cc(C(C)C)c(O)cc2O)c1-c1ccsc1CN1CCOCC1", "note": "[Compound I-2, 5-(2,4-Dihydroxy-5-isopropylphenyl)-N-ethyl-4-(2-(morpholinomethyl)thiophen-3-yl)isoxazole-3-carboxamide]", "values": [{"measurement": "IC50", "setting": "[1]", "value": "> 1000", "unit": "nM"}, {"measurement": "IC50", "setting": "[2]", "value": "< 500", "unit": "nM"}]}, {"compound": "CC(C)c1cc(-c2onc(CO)c2-c2ccsc2)c(O)cc1O", "note": "[Compound I-3, 4-(3-(Hydroxymethyl)-4-(thiophen-3-yl)isoxazol-5-yl)-6-isopropylbenzene-1,3-diol]", "values": [{"measurement": "IC50", "setting": "[1]", "value": "> 1000", "unit": "nM"}, {"measurement": "IC50", "setting": "[2]", "value": "> 1000", "unit": "nM"}]}, {"compound": "CCC(=O)NCc1noc(-c2cc(C(C)C)c(O)cc2O)c1-c1ccsc1", "note": "[Compound I-4, N-((5-(2,4-Dihydroxy-5-isopropylphenyl)-4-(thiophen-3-yl)isoxazol-3-yl)methyl)propionamide]", "values": [{"measurement": "IC50", "setting": "[1]", "value": "> 1000", "unit": "nM"}, {"measurement": "IC50", "setting": "[2]", "value": "> 1000", "unit": "nM"}]}, {"compound": "CC(C)c1cc(-c2onc(Cn3ccnn3)c2-c2ccsc2)c(O)cc1O", "note": "[Compound I-5, 4-(3-((1H-1,2,3-Triazol-1-yl)methyl)-4-(thiophen-3-yl)isoxazol-5-yl)-6-isopro pylbenzene-1,3-diol]", "values": [{"measurement": "IC50", "setting": "[1]", "value": "> 1000", "unit": "nM"}, {"measurement": "IC50", "setting": "[2]", "value": "< 500", "unit": "nM"}]}, {"compound": "CC(=O)NCc1noc(-c2cc(C(C)C)c(O)cc2O)c1-c1ccsc1", "note": "[Compound I-6, N-((5-(2,4-Dihydroxy-5-isopropylphenyl)-4-(thiophen-3-yl)isoxazol-3-yl)methyl)acetamide]", "values": [{"measurement": "IC50", "setting": "[1]", "value": "> 1000", "unit": "nM"}, {"measurement": "IC50", "setting": "[2]", "value": "< 500", "unit": "nM"}]}, {"compound": "CCNC(=O)c1noc(-c2cc(C(C)C)c(O)cc2O)c1C1CC(C(=O)OCC)=NO1", "note": "(centres unmarked) [Compound I-7, Ethyl 5-(5-(2,4-dihydroxy-5-isopropylphenyl)-3-(ethylcarbamoyl)isoxazol-4-yl)-4,5-dihydroisoxazole-3-carboxylate]", "values": [{"measurement": "IC50", "setting": "[1]", "value": "500 to 1000", "unit": "nM"}, {"measurement": "IC50", "setting": "[2]", "value": "500 to 1000", "unit": "nM"}]}, {"compound": "CCNC(=O)C1=NOC(c2c(C(=O)NCC)noc2-c2cc(C(C)C)c(O)cc2O)C1", "note": "(centres unmarked) [Compound I-8, 5-(2,4-Dihydroxy-5-isopropylphenyl)-N-ethyl-4-(3-(ethylcarbamoyl)-4,5-dihydroisoxazol-5-yl)isoxazole-3-carboxamide]", "values": [{"measurement": "IC50", "setting": "[1]", "value": "500 to 1000", "unit": "nM"}, {"measurement": "IC50", "setting": "[2]", "value": "< 500", "unit": "nM"}]}, {"compound": "CCNC(=O)c1noc(-c2cc(C(C)C)c(O)cc2O)c1C1CC(CO)=NO1", "note": "(centres unmarked) [Compound I-9, 5-(2,4-Dihydroxy-5-isopropylphenyl)-N-ethyl-4-(3-(hydroxymethyl)-4,5-dihydroisoxazol-5-yl)isoxazole-3-carboxamide]", "values": [{"measurement": "IC50", "setting": "[1]", "value": "500 to 1000", "unit": "nM"}, {"measurement": "IC50", "setting": "[2]", "value": "< 500", "unit": "nM"}]}, {"compound": "CCNC(=O)c1noc(-c2cc(C(C)C)c(O)cc2O)c1-c1nnn[nH]1", "note": "[Compound I-10, 5-(2,4-Dihydroxy-5-isopropylphenyl)-N-ethyl-4-(1H-tetrazol-5-yl)isoxazole-3-carboxamide]", "values": [{"measurement": "IC50", "setting": "[1]", "value": "500 to 1000", "unit": "nM"}, {"measurement": "IC50", "setting": "[2]", "value": "> 1000", "unit": "nM"}]}, {"compound": "CCNC(=O)c1noc(-c2cc(C(C)C)c(O)cc2O)c1-c1nnnn1C", "note": "[Compound I-11, 5-(2,4-Dihydroxy-5-isopropylphenyl)-N-ethyl-4-(1-methyl-1H-tetrazol-5-yl)isoxazole-3-carboxamide]", "values": [{"measurement": "IC50", "setting": "[1]", "value": "< 500", "unit": "nM"}, {"measurement": "IC50", "setting": "[2]", "value": "< 500", "unit": "nM"}]}, {"compound": "CCNC(=O)c1noc(-c2cc(C(C)C)c(O)cc2O)c1-c1nnn(C)n1", "note": "[Compound I-12, 5-(2,4-Dihydroxy-5-isopropylphenyl)-N-ethyl-4-(2-methyl-2H-tetrazol-5-yl)isoxazole-3-carboxamide]", "values": [{"measurement": "IC50", "setting": "[1]", "value": "< 500", "unit": "nM"}, {"measurement": "IC50", "setting": "[2]", "value": "< 500", "unit": "nM"}]}, {"compound": "CCNC(=O)c1noc(-c2cc(C(C)C)c(O)cc2O)c1-c1nnnn1CC", "note": "[Compound I-13, 5-(2,4-Dihydroxy-5-isopropylphenyl)-N-ethyl-4-(1-ethyl-1H-tetrazol-5-yl)isoxazole-3-carboxamide]", "values": [{"measurement": "IC50", "setting": "[1]", "value": "< 500", "unit": "nM"}, {"measurement": "IC50", "setting": "[2]", "value": "< 500", "unit": "nM"}]}, {"compound": "CCNC(=O)c1noc(-c2cc(C(C)C)c(O)cc2O)c1-c1nnn(CC)n1", "note": "[Compound I-14, 5-(2,4-Dihydroxy-5-isopropylphenyl)-N-ethyl-4-(2-ethyl-2H-tetrazol-5-yl)isoxazole-3-carboxamide]", "values": [{"measurement": "IC50", "setting": "[1]", "value": "< 500", "unit": "nM"}, {"measurement": "IC50", "setting": "[2]", "value": "< 500", "unit": "nM"}]}, {"compound": "CCNC(=O)c1noc(-c2cc(C(C)C)c(O)cc2O)c1-c1cc(C(=O)OCC)no1", "note": "[Compound I-15, Ethyl 5-(2,4-dihydroxy-5-isopropylphenyl)-3-(ethylcarbamoyl)-4,5′-biisoxazole-3′-carboxylate]", "values": [{"measurement": "IC50", "setting": "[1]", "value": "< 500", "unit": "nM"}, {"measurement": "IC50", "setting": "[2]", "value": "> 1000", "unit": "nM"}]}, {"compound": "CCNC(=O)c1cc(-c2c(C(=O)NCC)noc2-c2cc(C(C)C)c(O)cc2O)on1", "note": "[Compound I-16, 5-(2,4-Dihydroxy-5-isopropylphenyl)-N^3,N^3′-diethyl-4,5′-biisoxazole-3,3′-dicarboxamide]", "values": [{"measurement": "IC50", "setting": "[1]", "value": "< 500", "unit": "nM"}, {"measurement": "IC50", "setting": "[2]", "value": "< 500", "unit": "nM"}]}, {"compound": "CCNC(=O)c1noc(-c2cc(C(C)C)c(O)cc2O)c1-c1cc(CO)no1", "note": "[Compound I-17, 5-(2,4-Dihydroxy-5-isopropylphenyl)-N-ethyl-3′-(hydroxymethyl)-4,5′-biisoxazole-3-carboxamide]", "values": [{"measurement": "IC50", "setting": "[1]", "value": "< 500", "unit": "nM"}, {"measurement": "IC50", "setting": "[2]", "value": "< 500", "unit": "nM"}]}, {"compound": "CCNC(=O)c1noc(-c2cc(C(C)C)c(O)cc2O)c1-c1cc(CN2CCOCC2)no1", "note": "[Compound I-18, 5-(2,4-Dihydroxy-5-isopropylphenyl)-N-ethyl-3′-(morpholinomethyl)-4,5′-biisoxazole-3-carboxamide]", "values": [{"measurement": "IC50", "setting": "[1]", "value": "500 to 1000", "unit": "nM"}, {"measurement": "IC50", "setting": "[2]", "value": "< 500", "unit": "nM"}]}, {"compound": "CCNC(=O)c1noc(-c2cc(C(C)C)c(O)cc2O)c1-c1cc(COCC(=O)OC)no1", "note": "[Compound I-19, Methyl 2-((5-(2,4-dihydroxy-5-isopropylphenyl)-3-(ethylcarbamoyl)-4,5′-biisoxazol-3′-yl)methoxy)acetate]", "values": [{"measurement": "IC50", "setting": "[1]", "value": "< 500", "unit": "nM"}, {"measurement": "IC50", "setting": "[2]", "value": "< 500", "unit": "nM"}]}, {"compound": "CCNC(=O)c1noc(-c2cc(C(C)C)c(O)cc2O)c1-c1cc(CN(CC)CC)no1", "note": "[Compound I-20, 3′-((Diethylamino)methyl)-5-(2,4-dihydroxy-5-isopropylphenyl)-N-ethyl-4,5′-biisoxazole-3-carboxamide]", "values": [{"measurement": "IC50", "setting": "[1]", "value": "< 500", "unit": "nM"}, {"measurement": "IC50", "setting": "[2]", "value": "< 500", "unit": "nM"}]}, {"compound": "CCNC(=O)c1noc(-c2cc(C(C)C)c(O)cc2O)c1-c1cc(C(N)=O)no1", "note": "[Compound I-21, 5-(2,4-Dihydroxy-5-isopropylphenyl)-N^3-ethyl-4,5′-biisoxazole-3,3′-dicarboxamide]", "values": [{"measurement": "IC50", "setting": "[1]", "value": "500 to 1000", "unit": "nM"}, {"measurement": "IC50", "setting": "[2]", "value": "< 500", "unit": "nM"}]}, {"compound": "CCNC(=O)c1noc(-c2cc(C(C)C)c(O)cc2O)c1-c1cc(CNCCO)no1", "note": "[Compound I-22, 5-(2,4-Dihydroxy-5-isopropylphenyl)-N-ethyl-3′-((2-hydroxyethylamino)methyl)-4,5′-biisoxazole-3-carboxamide]", "values": [{"measurement": "IC50", "setting": "[1]", "value": "500 to 1000", "unit": "nM"}, {"measurement": "IC50", "setting": "[2]", "value": "< 500", "unit": "nM"}]}, {"compound": "CCNC(=O)c1noc(-c2cc(C(C)C)c(O)cc2O)c1-c1cc(C(=O)N2CCOCC2)no1", "note": "[Compound I-23, 5-(2,4-Dihydroxy-5-isopropylphenyl)-N-ethyl-3′-(morpholine-4-carbonyl)-4,5′-biisoxazole-3-carboxamide]", "values": [{"measurement": "IC50", "setting": "[1]", "value": "500 to 1000", "unit": "nM"}, {"measurement": "IC50", "setting": "[2]", "value": "< 500", "unit": "nM"}]}, {"compound": "CCNC(=O)c1noc(-c2cc(Cl)c(O)cc2O)c1-c1cc(CO)no1", "note": "[Compound I-24, 5-(5-Chloro-2,4-dihydroxyphenyl)-N-ethyl-3′-(hydroxymethyl)-4,5′-biisoxazole-3-carboxamide]", "values": [{"measurement": "IC50", "setting": "[1]", "value": "500 to 1000", "unit": "nM"}, {"measurement": "IC50", "setting": "[2]", "value": "> 1000", "unit": "nM"}]}, {"compound": "CCNC(=O)c1noc(-c2cc(Cl)c(O)cc2O)c1-c1cc(C(=O)OCC)no1", "note": "[Compound I-25, Ethyl 5-(5-chloro-2,4-dihydroxyphenyl)-3-(ethylcarbamoyl)-4,5′-biisoxazole-3′-carboxylate]", "values": [{"measurement": "IC50", "setting": "[1]", "value": "500 to 1000", "unit": "nM"}, {"measurement": "IC50", "setting": "[2]", "value": "> 1000", "unit": "nM"}]}]}
